In patent publication US12527849B2, “Apparatus for determining administration form of a composition of an engineered virus-based nanoparticle for a treatment of an autoimmune condition” (Diamante Srl, priority 2021, dated 2026):

Assays:
IL-17A = test: Cytokine ELISA in CIA mice, day 60: IL-17A; assay type: in vivo
Source text: (§1) With continued reference to FIG. 1, in some embodiments, administration 116 may be done to an animal. As a non-limiting example, the animal may include a mouse, a fish, a rabbit, human, and the like. As a non-limiting example, administration 116 of composition of the engineered virus-based nanoparticle for a treatment of an autoimmune condition may be done to dilute, brown, and non-agouti (DBA) mice based on their susceptibility to collagen-induced arthritis (CIA). Female DBA/1 mice 6 to 8 weeks of age may be maintained under specific pathogen-free conditions. CIA may be induced by the intradermal tail base injection of 100 μg of chicken type II collagen (Sigma-Aldrich) as previously described. Five mice per group may be immunized on days 0 and 21 to induce arthritis. The onset of disease may be confirmed on the day that swelling or erythema may be observed in any paw, typically 4 to 10 days after the second immunization. […] CIA may be assessed using a macroscopic score system based on the visual identification of arthritic limbs. The clinical severity of arthritis may be evaluated as follows: Each mouse may be inspected every 2 to 3 days for three different parameters: (i) swelling of the hind ankle and foot, measured with calipers; (ii) erythema of each leg; and (iii) swelling of the fingers. The RA index for each mouse was expressed as the mean of the three scores from the individual parameters. At the end of the experiment (60 days), we determined the proportion of CD25+Foxp3+ cells in the lymph nodes and measured cytokine titers in the lymph nodes, joints, and serum.
With continued reference to FIG. 1, in some embodiments, processor 104 may determine critical administration 124 as a function of a cytokine profile and a proportion of CD25^+ Foxp3^+ cells. […] In some embodiments, to quantify cytokines in DBA mice, joint tissues may be pulverized and resuspended in 1 ml of lysis medium per 100-mg joint weight for 60 min at 37′C, followed by centrifugation to remove debris. […]

CD25+ Foxp3+ cells = test: Percentage of CD25+ Foxp3+ cells in lymph nodes of CIA mice; assay type: in vivo; conditions: day 60 after immunization, i.p. treatment, mean (SEM), n=3
Source text: as §1, with “described.” for “described. Five mice per group may be immunized on days 0 and 21 to induce arthritis. The onset of disease may be confirmed on the day that swelling or erythema may be observed in any paw, typically 4 to 10 days after the second immunization.”, “serum. […]” for “serum.”

In the case of `C[C@@H]1C[C@H]2[C@@H]3CCC4=CC(=O)C=C[C@]4(C)[C@@]3(F)[C@@H](O)C[C@]2(C)[C@@]1(O)C(=O)CO` [Dexamethasone, dexamethasone], the “IL-17A J” value (IL-17A; joint supernatant, CIA mice, day 60, mean n=3) is reported as 1219.43 pg/mL, the “IL-17A LN” value (IL-17A; lymph node supernatant, CIA mice, day 60, mean n=3) is reported as 1540.40 pg/mL and the “IL-17A S” value (IL-17A; serum pooled from five CIA mice, day 60) is reported as 313.8 pg/mL. For the same compound, the “% CD25^+/Foxp3^+” value (CD25+ Foxp3+ cells) was 3.26 (0.84) %.
